The text below walks through data of US4092420A, “Novel soft N-chloroamino alcohol derivatives exhibiting antibacterial activity” (INTERx Research Corporation, priority 1977, dated 1978).

Series [1] concerns P. aeruginosa. The series is described as follows: Minimal inhibitory concentration (MIC), Example V. It is filed as cell-based. The conditions noted are these: Pseudomonas aeruginosa. As to the method: (§1) THE ANTIBACTERIAL SCREEN - EXAMPLE V
(§2) THE ANTIBACTERIAL SCREEN - EXAMPLES W - Z (Autotiter IV)
(§3) (a) Compounds. All compounds to be screened are weighed (approx. 10 mg) on the day preceding the test date. Each compound is solubilized on the day of assay in appropriate solvent and diluted automatically in the Autotiter IV with distilled water (buffer can be employed here also).
(§4) Bacteria: Staphylococcus aureas Smith (or 209), Escherichia coli AB 1932-1, 1100/B22 and Vogel, Streptococcus pyogenes C203 Salmonella typhimurium 14028, Bacillus subtilis 6051-1, Klebsiella pneumoniae 10031, Pseudomonas aeruginosa 9027, Bordetella bronchiseptica 4617 and Staphylococcus epidermidis 12228.
(§5) (c) Inocula. Prior to utilization in the Autotiter IV, all bacteria are cultured for 18-20 hr. (37° C) in tryptose phosphate broth (TP), except, S. pyogenes C203, which is cultured in Brain Heart Infusion broth plus 10% normal horse serum. Immediately prior to testing, each culture is adjusted to an optical density of 0.10 (650 nm), employing a Bausch & Lomb Spectronic 20, and diluted subsequently into double strength medium to approximately 2 × 10^5 viable organisms per ml.
(§6) 1. An automated injector system dispenses 0.05 ml of diluent (sterile H2 O or buffer) to all cups of the autotiter trays from rows 2 through 7.
(§7) 2. The loops (for sequential dilutions of the compounds are moistened by immersion into 70% ethyl alcohol. After removal of excess alcohol by blotting, the loops are moved to the first row of cups in the autotray containing 0.10 ml of the compound to be diluted and tested (usually, this initial concentration is 500 to 1000 mcg/ml, but can be varied upward or downward). The loops are lowered and sequentially transfer the diluted solutions of the compound through row 7.
(§8) Immediately after each dilution is made, each cup is automatically inoculated with 0.05 ml of the appropriate test organism. This inoculation derives from a second injector system containing the organism in double-strength medium. The total operation consists of the automatic dilution of a single compound in each of 8 rows of the Autotiter try.
(§9) After these operations, we reverse the tray and a second compound is diluted over the other one-half of the tray and inoculated, subsequently, with 8 organisms. Thus, for each Autotiter Tray, two compounds are screened against 8 different organisms at dilutions ranging from 1:2 to 1:128.
(§10) (e) Incubation. The inoculated Autotiter trays are incubated at 37° C for 18 - 20 hr. At the end of this period, each tray is examined for the presence or absence of growth (turbidity). The lowest concentration of the compound inhibiting growth is recorded as the minimal inhibitory concentration (MIC).

Series [2] concerns S. aureus. The series is described as follows: Minimal inhibitory concentration (MIC), Example V. The format is cell-based. The conditions noted are these: Staphylococcus aureus. As to the method: as §1, §2, §3, §4, §5, §6, §7, §8, §9, §10
The next series concerns S. pyogenes. The series is described as follows: Minimal inhibitory concentration (MIC), Example V. It is filed as cell-based. As to conditions: Streptococcus pyogenes.
The test system of the next series is A. niger. The series can be described thus: Minimal inhibitory concentration (MIC), Example V. It is filed as cell-based. The conditions noted are these: Aspergillus niger.
Excerpt: (§11) MINIMAL INHIBITORY CONCENTRATION OF 2-AMINO-2-METHYL-1-PROPYL
(§12) ^a Minimal inhibitory concentration expressed in parts per million
(§13) sequence inhibited the test organism at the higher concentrations.
as §1

Series [3] concerns E. coli. The series can be described thus: Minimal inhibitory concentration (MIC), Example V. The format is cell-based. As to conditions: Escherichia coli.
Excerpt: as §11, §12, §13, §1

For a further series, the system named is T. mentagrophytes. The series can be described thus: Minimal inhibitory concentration (MIC), Example V. The format is cell-based. As to conditions: Trichophyton mentagrophytes.
Excerpt: as §11, §12, §13, §1

For series [4], the system named is K. pneumoniae. The series can be described thus: Minimal inhibitory concentration (MIC), Example V. The format is cell-based. As to conditions: Klebsiella pneumoniae. As to the method: as §11, §12, §13, §1
Klebsiella pneumoniae ATCC# 10031
as §2, §3, §4, §5, §6, §7, §8, §9, §10

The next series relates to C. albicans. The series can be described thus: Minimal inhibitory concentration (MIC), Example V. The format is cell-based. The conditions noted are these: Candida albicans.
Excerpt: MINIMAL INHIBITORY CONCENTRATION OF 2-AMINO-2-METHYL-1-PROPYL […]
as §1

The nature of series [5]: Solubility in 30% methanol: 0.1 M sodium dihydrogen phosphate, pH 7.0. The format is physicochemical. As to conditions: 0.1 m nah2po4, pH 7, organic solvent or mixture, Concentration (footnote: Solubility in 30% methanol: 0.1 M sodium dihydrogen phosphate, pH 7.0).
For series [6], the system named is S. aureus. The series can be described thus: Contact germicidal efficiency (sterilization time). It is filed as cell-based, Staphylococcus aureus. The conditions noted are these: Example Z, pH 4.6, in presence of horse serum, 5800 ppm (1057 PPMCl+). The procedure: (§14) CONTACT GERMICIDAL EFFICIENCY OF
(§15) ^a Time intervals screened 0.5, 1, 2, 3, 4 and 5 minutes.
(§16) ^a Time intervals screened 0.5, 1, 2, 3, 4, 5, 6, 7, 8, 9 and 10
(§17) ^a Time intervals screened 0.5, 1, 2, 3, 4, and 5 minutes.
(§18) ^b Time intervals screened 0.5, 1, 2, 3, 4, 5, 6, 7, 8, 9 and 10
(§19) Immediately preceding the screen, the compound is weighed and diluted with a buffer or other solvent to give the final concentration desired. The buffer or solvent chosen depends on the conditions of the screen and could be one of the following: 0.1 M NaOAc, pH 4.6; 0.1 M NaH2 PO4, pH 7.0; 0.1 M Na2 B4 O7, pH 8.8; 35% methanol in one of the aforementioned buffers; 10% Triton × 100 in buffer, etc.
(§20) The positive chlorine concentration of the test solution is then determined iodometrically.
(§21) Media used for the Screen are Nutrient Broth, BBL# 11479 and Nutrient Agar, BBL# 11472 prepared according to label directions. The broth is dispensed in 75 ml amounts of flasks for overnight cultures and in 5 ml amounts to culture tubes for subculturing during the Screen. Agar plates are prepared as usual. […]
(§22) A 0.2 ml portion of the overnight culture is inoculated into 5 ml of 0.9% NaCl for use in controls. […] The earliest subculture time at which no growth is present in the subculture tube is considered the endpoint and is recorded as that time, e.g., 7 minutes. […]

For series [7], the system named is E. coli. The series can be described thus: Contact germicidal efficiency (sterilization time). The format is cell-based, Escherichia coli. As to conditions: Example Z, pH 4.6, in presence of horse serum, 5800 ppm (1057 PPMCl+). As to the method:
as §14, §15, §16, §17, §18, §19, §20, §21, §22

For a further series, the system named is S. epidermidis. The series is described as follows: Contact germicidal efficiency (sterilization time). It is filed as cell-based, Staphylococcus epidermidis. As to conditions: Example Z, S. pidermidis, pH 4.6. As to the method: (§23) CONTACT GERMICIDAL EFFICIENCY OF N-CHLORAMINES AS A FUNCTION
as §15, §16, §17, §18, §19, §20
(§24) Media used for the Screen are Nutrient Broth, BBL# 11479 and Nutrient Agar, BBL# 11472 prepared according to label directions. The broth is dispensed in 75 ml amounts of flasks for overnight cultures and in 5 ml amounts to culture tubes for subculturing during the Screen. Agar plates are prepared as usual.
(§25) Overnight cultures are prepared by inoculating from stock cultures into the 75 ml flasks of nutrient broth and incubating for 15 hours at 37° C.
(§26) The iodometrically characterized test solution is dispensed in 5 ml amounts to seven small stoppered flasks. The organisms are screened one at a time as follows:
(§27) A 0.2 ml portion of the overnight culture is inoculated into 5 ml of 0.9% NaCl for use in controls. A 0.2 ml portion of the overnight culture is inoculated into a flask containing 5 ml of the test solution, an automatic timer is simultaneously triggered and the solution mixed. At time intervals of 30 seconds, 1, 2, 3, 4, 5, 6, 7, 8, 9, and 10 minutes a loopful of the inoculated solution is subcultured into 5 ml of sterile nutrient broth and mixed by a Vortex Genie Mixer, the high dilution serving to stop the action of the compound. At the end of the ten minute screen, the entire procedure is repeated for each of the remaining six organisms. All of the subculture tubes are incubated at 37° C and checked for signs of growth by turbidity at 24 hr., 48 hr., 3, 5, and 7 days. The earliest subculture time at which no growth is present in the subculture tube is considered the endpoint and is recorded as that time, e.g., 7 minutes.
(§28) The test solution is prepared and characterized as above but is made up at twice the concentration desired. The solution is diluted 1:1 with Rehydrated Tissue Culture Dessicated Horse Serum, Difco #5357-72 and dispensed in a 5 ml amount to a small flask. The mixture is incubated at Room Temperature for 30 minutes to allow denaturation of the compound by the serum and then screened as above.
(§29) The 5 ml mixture of serum and test solution are prepared in sequence to allow as close to 30 minutes as possible before the beginning of the screen of each organism.
as §4

In series [8] the test system is K. pneumoniae. The series can be described thus: Contact germicidal efficiency (sterilization time). It is filed as cell-based, Klebsiella pneumoniae. As to conditions: Example Z. As to the method: as §23, §15, §16, §17, §18, §19, §20, §24, §25, §26, §27, §28, §29, §4
Series [9] deals with P. aeruginosa. The series can be described thus: Contact germicidal efficiency (sterilization time). As to conditions: Example Z. The format is cell-based, Pseudomonas aeruginosa. The procedure: as §23, §15, §16, §17, §18, §19, §20, §24, §25, §26, §27, §28, §29, §4
A further series concerns B. bronchiseptica. The series is described as follows: Contact germicidal efficiency (sterilization time). The format is cell-based, Bordetella bronchiseptica. The conditions noted are these: Example Z. As to the method:
as §23, §15, §16, §17, §18, §19, §20, §24, §25, §26, §27, §28, §29, §4

The conditions of series [10]: prior art; cited from earlier work.
Setting [11] is: pH 4.6, absence of horse serum, IV j 79 ppm (21 PPMCl+), IV k 5800 (1057), IV l 1112 (209).
Where [12] appears, read: pH 4.6, in presence of horse serum, 5800 ppm (1057 PPMCl+).

For the compound `CCCC(=O)OCC(C)(C)N.Cl` [III b, 2-Amino-2-methyl-1-propyl butyrate hydrochloride], the minimal inhibitory concentration (MIC) with P. aeruginosa [1], against S. aureus [2], against S. pyogenes, in the series with A. niger, with E. coli [3] and against T. mentagrophytes was above 62.5 µg/mL each time. Moreover, the minimal inhibitory concentration (MIC) against K. pneumoniae [4] and against C. albicans was above 62.5 µg/mL each time. For the same compound, the solubility – broadly, how much of the substance goes into solution per volume – in series [5] was 1070 µg/mL.
With `CCCCCC(=O)OCC(C)(C)N.Cl` [III d, 2-Amino-2-methyl-1-propyl hexanoate hydrochloride], the MIC (commonly the lowest concentration found to suppress growth) against P. aeruginosa [1] is 62.5 µg/mL; in the series on S. aureus [2], above 62.5 µg/mL; against S. pyogenes, 62.5 µg/mL; with A. niger, above 62.5 µg/mL; against E. coli [3] it was above 62.5 µg/mL; in the series on T. mentagrophytes, above 62.5 µg/mL. Besides, the MIC in the series with K. pneumoniae [4] and against C. albicans was above 62.5 µg/mL each time. Also, in [5], the solubility worked out at 1040 µg/mL.
As for `CCCCCCCC(=O)OCC(C)(C)N.Cl` [III e, 2-Amino-2-methyl-1-propyl octanoate hydrochloride], the MIC against P. aeruginosa [1], in the series with S. aureus [2], against S. pyogenes, against A. niger, against E. coli [3] and against T. mentagrophytes was above 62.5 µg/mL throughout. Further, the minimal inhibitory concentration (MIC) with K. pneumoniae [4] and against C. albicans was above 62.5 µg/mL throughout. Moreover, the solubility in series [5] stood at 1040 µg/mL.
Regarding `C[n+]1cccc(C(=O)OCC(C)(C)N(Cl)Cl)c1` [IV k, 2-N,N-Dichloroamino-2-methyl-1-propyl nicotinate methylsulfate], the minimum inhibitory concentration (MIC) is above 250 µg/mL against P. aeruginosa [1]; above 250 µg/mL against S. aureus [2]; above 250 µg/mL in the series with S. pyogenes; 125 µg/mL against A. niger; above 250 µg/mL against E. coli [3]; 125 µg/mL with T. mentagrophytes. Also, the minimal inhibitory concentration (MIC) against K. pneumoniae [4] and against C. albicans was above 250 µg/mL each time. Besides, the “Sterilization Time” value amounted to 6 min with S. aureus [6]; 0.5 min with E. coli [7]; 4 min with S. epidermidis (absence of horse serum, IV j 79 ppm (21 PPMCl+), IV k 5800 (1057), IV l 1112 (209)); 4 min with S. epidermidis (in presence of horse serum, 5800 ppm (1057 PPMCl+)); 2 min with K. pneumoniae [8] (setting [11]); 2 min in the series on K. pneumoniae [8] (setting [12]). The “Sterilization Time” value came out at 2 min in the series with P. aeruginosa [9] (setting [11]), 2 min in the series with P. aeruginosa [9] (setting [12]), 1 min in the series with B. bronchiseptica (setting [11]) and 2 min in the series on B. bronchiseptica (setting [12]).
For the compound `NCl` [NH2 Cl, chloramine], the “Deactivation by denaturing agents (e.g., horse serum)” value in [10] is listed as “readily deactivated”.
For `ClNCl` [NHCl2], the “Deactivation by denaturing agents (e.g., horse serum)” value in series [10] is “readily deactivated”.
